Source: US8497283B2, “Autotaxin inhibitors” (Merck Patent GmbH, priority 2009, dated 2013)

The compounds below were run against T1, recombinant autotaxin (Homo sapiens, UniProt Q13822) (assay: Autotaxin assay (Amplex Red fluorescence, LPC substrate)). Details: ten serial 1:3 dilutions starting at 30 μM, duplicates; 75 μM LPC; values given as upper bounds.
T1 construct: made in house; host or cells: Hi5 insect cells (baculovirus)
Type: biochemical
Description: Autotaxin activity is measured indirectly by means of Amplex Red Reagent. In this course, Amplex Red is measured as fluorogenic indicator for generated H2O2. Autotaxin converts substrate lysophosphatidylcholine (LPC) to phosphocholine and lysophosphatidylic acid (LPA). After the conversion phosphocholine is reacted with alkaline phosphatase to obtain inorganic phosphate and choline. During the next step choline is oxidized with choline oxidase to yield betaine, whereby H2O2 is generated. H2O2 reacts with Amplex Red Reagent in the presence of peroxidase (Horseradish peroxidase) in an 1:1 stochiometry and yields highly fluorescent resorufin. The generated fluorescence is measured in a reaction-dependent kinetic mode in order to enable subtraction of fluorescence signals of possible other fluorescent compounds that are not part of the reaction from total measured fluorescence.
1.5 μl of a standard solution or of the compounds of the invention are dissolved in 20 mM Hepes pH 7.2 with maximally 7.7% DMSO in individual concentrations. The resulting solution is pre-incubated together with 10 μl (16 ng) of highly purified recombinant autotaxin in a black 384-hole microtiter plate for 30 min at 22° C.
Thereafter, the reaction is started through the addition of 5 μl L-a-lysophosphatidyl-choline (LPC), whereby the final concentration of LPC is 75 μM. The mixture is incubated for 90 min. at 37° C. After the incubation Amplex Red Reagent, peroxidase (Horseradish peroxidase) and choline oxidase are added. The fluorescence is immediately measured at a wavelength of 612 nm with an excitation wavelength of 485 nm in a “Tecan Ultra multimode” fluorescence reader. The activity of autotaxin is indirectly calculated via the amount of detected generated H2O2.
For IC50 analysis, ten serial 1:3 dilutions starting at 30 μM for each compound were run in duplicates.
IC50 values were calculated on normalized data. For normalization, control wells were added to each assay plate and the signal of uninhibited control wells was set to 100%, whereas the signal inhibited by 500 μM C14 LPA, (Avanti Polar Lipids, Cat#857120P) was set to 0%. Curves were fitted and IC50 values calculated by the following model using proprietory analysis software: Y=Bottom+(100−Bottom)/(1+10^((Log IC50−X)*HillSlope))
Where X is the logarithm of concentration. Y is the response;
Y starts at Bottom and goes to Top with a sigmoid shape.
Protein: Recombinant autotaxin (baculoviral Hi5 expression)
Substrate: L-a-lysophosphatidyl choline (chicken egg); Avanti Polar Lipids #830071P
Standard: C14 LPA, Avanti Polar Lipids, Cat#857120P
Detection Reagent Amplex Red Reagent; Invitrogen #A12222; dissolved in 1.923 ml of DMSO peroxidase Type VI-A (horseradish), Sigma #P6782; dissolved in 7.45 ml of test buffer, Choline Oxidase; Sigma #C5896; dissolved in 2.47 ml test buffer
Detection Reagent Mix: 1:100 dilution of Amplex Red Regent in test buffer
Test buffer: 200 mM Tris-HCl, Merck, Cat #1.08219, pH 7.9; 0.1% BSA, lipid free, Roche Cat#775835
`O=C(Nc1ccc2c(c1)CCN(C(=O)c1ccc3[nH]nnc3c1)C2)OCc1cc(Cl)cc(Cl)c1` [Compound 48, [2-(1H-Benzotriazole-5-carbonyl)-1,2,3,4-tetrahydro-isoquinolin-6-yl]-carbamic acid 3,5-dichloro-benzyl ester] showed an IC50 of less than 10 µM.
`O=C(NCc1ccc(SC(F)(F)F)cc1)c1[nH]nc2c1CCN(C(=O)c1ccc3[nH]nnc3c1)C2` [Compound 49, 6-(1H-Benzotriazole-5-carbonyl)-4,5,6,7-tetrahydro-2H-pyrazolo[3,4-c]pyridine-3-carboxylic acid 4-trifluoromethylsulfanyl-benzylamide] showed an IC50 of less than 30 µM.
`O=C(Nc1ccc2[nH]nnc2c1)c1n[nH]c2c1CCN(C(=O)OCc1ccc(C(F)(F)F)cc1)C2` [Compound 50, 3-(1H-Benzotriazol-5-ylcarbamoyl)-1,4,5,7-tetrahydro-pyrazolo[3,4-c]pyridine-6-carboxylic acid 4-trifluoromethyl-benzyl ester] was tested, and the IC50 was less than 1 µM.
In the case of `O=C(NCc1ccc(F)c(Br)c1)c1[nH]nc2c1CCN(C(=O)c1ccc3[nH]nnc3c1)C2` [Compound 51, 6-(1H-Benzotriazole-5-carbonyl)-4,5,6,7-tetrahydro-2H-pyrazolo[3,4-c]pyridine-3-carboxylic acid 3-bromo-4-fluoro-benzylamide], the IC50 is reported as less than 1 µM.
Work on `O=C(Nc1ccc2[nH]nnc2c1)c1[nH]nc2c1CCN(C(=O)OCc1cc(Cl)cc(Cl)c1)C2` [Compound 52, 3-(1H-Benzotriazol-5-ylcarbamoyl)-2,4,5,7-tetrahydro-pyrazolo[3,4-c]pyridine-6-carboxylic acid 3,5-dichloro-benzyl ester] yielded an IC50 of less than 1 µM.
`O=C(Nc1ccc2[nH]nnc2c1)c1[nH]nc2c1CCN(C(=O)OCc1cc(C(F)(F)F)cc(C(F)(F)F)c1)C2` [Compound 53, 3-(1H-Benzotriazol-5-ylcarbamoyl)-2,4,5,7-tetrahydro-pyrazolo[3,4-c]pyridine-6-carboxylic acid 3,5-bis-trifluoromethyl-benzyl ester] showed an IC50 of less than 1 µM.
For `O=C(Nc1ccc2[nH]nnc2c1)c1[nH]nc2c1CCN(C(=O)OCc1ccc(C(F)(F)F)c(Cl)c1)C2` [Compound 54, 3-(1H-Benzotriazol-5-ylcarbamoyl)-2,4,5,7-tetrahydro-pyrazolo[3,4-c]pyridine-6-carboxylic acid 3-chloro-4-trifluoromethyl-benzyl ester], the IC50 was less than 10 µM.
Work on `O=C(Nc1ccc2[nH]nnc2c1)c1[nH]nc2c1CCN(C(=O)OCc1cccc(C(F)(F)F)c1)C2` [Compound 55, 3-(1H-Benzotriazol-5-ylcarbamoyl)-2,4,5,7-tetrahydro-pyrazolo[3,4-c]pyridine-6-carboxylic acid 3-trifluoromethyl-benzyl ester] yielded an IC50 of less than 1 µM.
`O=C(Nc1ccc2[nH]nnc2c1)c1[nH]nc2c1CCN(C(=O)OCc1ccc(SC(F)(F)F)cc1)C2` [Compound 56, 3-(1H-Benzotriazol-5-ylcarbamoyl)-2,4,5,7-tetrahydro-pyrazolo[3,4-c]pyridine-6-carboxylic acid 4-trifluoromethylsulfanyl-benzyl ester] gave an IC50 of less than 1 µM.
With `O=C(Nc1ccc2[nH]nnc2c1)c1[nH]nc2c1CCN(C(=O)OCc1ccc(OC(F)(F)F)cc1)C2` [Compound 57, 3-(1H-Benzotriazol-5-ylcarbamoyl)-2,4,5,7-tetrahydro-pyrazolo[3,4-c]pyridine-6-carboxylic acid 4-trifluoromethoxy-benzyl ester] the IC50 was less than 10 µM.
`O=C(Nc1ccc2[nH]nnc2c1)c1[nH]nc2c1CCN(C(=O)OCc1ccc(OC(F)(F)F)c(Cl)c1)C2` [Compound 58, 3-(1H-Benzotriazol-5-ylcarbamoyl)-2,4,5,7-tetrahydro-pyrazolo[3,4-c]pyridine-6-carboxylic acid 3-chloro-4-trifluoromethoxy-benzyl ester] was tested, and the IC50 was less than 1 µM.
Work on `COc1ccc(C2CCCN(C(=O)c3[nH]nc4c3CCN(C(=O)c3ccc5[nH]nnc5c3)C4)C2)cc1` (stereo not shown) [Compound 59, (1H-Benzotriazol-5-yl)-{3-[3-(4-methoxy-phenyl)-piperidine-1-carbonyl]-2,4,5,7-tetrahydro-pyrazolo[3,4-c]pyridin-6-yl}-methanone] yielded an IC50 of less than 30 µM.
`O=C(NCc1ccc(OC(F)(F)F)cc1)c1[nH]nc2c1CCN(C(=O)c1ccc3[nH]nnc3c1)C2` [Compound 60, 6-(1H-Benzotriazole-5-carbonyl)-4,5,6,7-tetrahydro-2H-pyrazolo[3,4-c]pyridine-3-carboxylic acid 4-trifluoromethoxy-benzylamide] gave an IC50 of less than 30 µM.
`O=C(NCc1ccc(C(F)(F)F)cc1)c1[nH]nc2c1CCN(C(=O)c1ccc3[nH]nnc3c1)C2` [Compound 61, 6-(1H-Benzotriazole-5-carbonyl)-4,5,6,7-tetrahydro-2H-pyrazolo[3,4-c]pyridine-3-carboxylic acid 4-trifluoromethyl-benzylamide] was tested, and the IC50 was less than 10 µM.
`COc1ccc2c(c1)CCC(NC(=O)c1[nH]nc3c1CCN(C(=O)c1ccc4[nH]nnc4c1)C3)C2` (stereo not shown) [Compound 62, 6-(1H-Benzotriazole-5-carbonyl)-4,5,6,7-tetrahydro-2H-pyrazolo[3,4-c]pyridine-3-carboxylic acid (6-methoxy-1,2,3,4-tetrahydro-naphthalen-2-yl)-amide] gave an IC50 of less than 10 µM.
`COC(=O)CC(NC(=O)c1[nH]nc2c1CCN(C(=O)c1ccc3[nH]nnc3c1)C2)c1ccc(C(C)(C)C)cc1` (stereo not shown) [Compound 63, 3-{[6-(1H-Benzotriazole-5-carbonyl)-4,5,6,7-tetrahydro-2H-pyrazolo[3,4-c]pyridine-3-carbonyl]-amino}-3-(4-tert-butyl-phenyl)-propionic acid methyl ester] showed an IC50 of less than 30 µM.
